Data on two compounds can be found in PMC7323874, “Vancomycin Resistance Is Overcome by Conjugation of Polycationic Peptides” (Angewandte Chemie (International Ed. in English), 2020).

Molecules are shown by their SMILES. Converted amounts (≈) assume the structure as drawn. Like-named read-outs stand apart in the source and are kept apart here.

Common to all, as to type: cell-based
The subject of data set [1] is E. faecium UL602570*. Kind of data set: microbe, parasite or virus in culture. As for the experimental part: (§1) Antimicrobial testing – Microdilution
(§2) Antimicrobial testing was performed according to CLSI and EUCAST guidelines in microdilution.8-10 Therefore, all tested substances as well as controls were dissolved in water in different concentrations and serially diluted in MHB II (cation adjusted) on the 96-well plate. A logarithmic growing, overnight culture of the respective bacterial strain was used and adjusted to a McFarland corresponding to 1 × 10^8 cfu/ml. Afterwards the bacterial suspension was diluted to 1 ×10^6 cfu/ml and loaded on the 96-well polypropylene plates, resulting in a final bacterial concentration of 5 × 10^5 cfu/ml. After an incubation at 35 ± 1 °C for 18-20 hours (re-controlled after 24 hours) the MIC was determined as the lowest concentration without visible growth as described previously.11 For direct comparison of the tested substances, all results were calculated in mg/ml and mol/ml afterwards. […]
Resistance development in S. aureus was determined by passaging bacteria in increasing amounts of vancomycin, FU002 or, as control, fusidic acid. In principle, tubes with twofold dilutions of the compounds in 1 ml Muller Hinton broth were inoculated 1:100 with bacterial suspension. […]
For the validation of possible side effects provoked by the conjugates, the cytotoxic effect of the lead candidate FU002 on human cells was assessed in a colorimetric viability assay. […]

The subject of data set [2] is A. baumannii SC300007. Kind of data set: microbe, parasite or virus in culture. As for the experimental part: as §1, §2
(§3) As further control substance, the glycopeptide antibiotic teicoplanin was evaluated. […] Resistance development in S. aureus was determined by passaging bacteria in increasing amounts of vancomycin, FU002 or, as control, fusidic acid. In principle, tubes with twofold dilutions of the compounds in 1 ml Muller Hinton broth were inoculated 1:100 with bacterial suspension. The tubes were then incubated for 24 h at 37 °C under shaking. After each passage, the tube with the highest compound concentration showing bacterial growth was used to inoculate the tubes of the next passage (1:100). The tube with the lowest compound concentration showing no growth was defined as the passage MIC. Passaging was stopped after 8 passages.
(§4) For the validation of possible side effects provoked by the conjugates, the cytotoxic effect of the lead candidate FU002 on human cells was assessed in a colorimetric viability assay. Different human cell types were used including kidney and liver cell lines as well as freshly isolated peripheral blood cells. Cells were seeded into 96-well microtiter plates at 2 x 10^4 cells/well and cultured overnight (18-24 h) in a […]

For data set [3], the system named is K. pneumoniae ATCC 700603. Kind of data set: microbe, parasite or virus in culture. How it is done:
as §1, §2, §3, §4

For data set [4], the system named is Staphylococcus aureus USA300 LAC. Kind of data set: microbe, parasite or virus in culture. To be noted: for MIC: Staphylococcus aureus, MRSA / USA300, 24 h. How it is done:
as §1, §2
Resistance development study
Resistance development in S. aureus was determined by passaging bacteria in increasing amounts of vancomycin, FU002 or, as control, fusidic acid. In principle, tubes with twofold dilutions of the compounds in 1 ml Muller Hinton broth were inoculated 1:100 with bacterial suspension. The tubes were then incubated for 24 h at 37 °C under shaking. After each passage, the tube with the highest compound concentration showing bacterial growth was used to inoculate the tubes of the next passage (1:100). The tube with the lowest compound concentration showing no growth was defined as the passage MIC. Passaging was stopped after 8 passages.
as §4

For data set [5], the system named is human erythrocytes. Kind of data set: Hemolysis assay. To be noted: up to a concentration of 640 µg/ml; 120 min at 37 °C; absorption at 554 nm; 1% Triton X-100 as positive control. How it is done: For hemolysis studies, blood from four different, fasted men were taken to determine the hemoglobin release. Erythrocytes were purified centrifuging blood at 2500 rpm for 3 min. The remaining pellet was washed with PBS and centrifuged again. This process was repeated until the supernatant remained clear.
For the hemolysis assay, v-bottom plates were used. FU002 was tested in duplicates in three different assays. As positive control, a 1% Triton® in 0.9%-NaCl solution was used.
FU002 was serial diluted on the plate, resulting in 50 µl of a final concentration of 640 µg/ml to 1.25 µg/ml. Every well contained 50 µl of the purified erythrocytes. […] 50 µl of the supernatant were transferred to a flat-bottom plate and absorption was measured at 554 nm.
Hemolysis was calculated as followed: […]
Cobra Auto γ-Counter, (Packard Bioscience, USA) in comparison with standards. The tissue-associated activity was related to the total injected dose (ID) and expressed as a percentage of the total injected dose per gram of tissue (%ID/g). […]
Mice were infected by intravenous application of the bacterial inoculum via the tail vein. […] During infection, mice were scored twice daily and sacrificed at day 4 post infection and livers harvested. […] Significant differences in the CFU of the livers were determined with Kruskal-Wallis test (software: GraphPad Prism 5.0).

As for `CC(C)C[C@H](C(=O)N[C@H]1C(=O)N[C@@H](CC(N)=O)C(=O)N[C@H]2C(=O)N[C@H]3C(=O)N[C@H](C(=O)N[C@H](C(=O)O)c4cc(O)cc(O)c4-c4cc3ccc4O)[C@H](O)c3ccc(c(Cl)c3)Oc3cc2cc(c3O[C@@H]2O[C@H](CO)[C@@H](O)[C@H](O)[C@H]2O[C@H]2C[C@](C)(N)[C@H](O)[C@H](C)O2)Oc2ccc(cc2Cl)[C@H]1O)N(C)C(=O)C1CCC(CN2C(=O)CC(SC[C@H](NC(=O)[C@H](CCCNC(=N)N)NC(=O)[C@H](CCCNC(=N)N)NC(=O)[C@H](CCCNC(=N)N)NC(=O)[C@H](CCCNC(=N)N)NC(=O)[C@H](CCCNC(=N)N)NC(=O)[C@@H](N)CCCNC(=N)N)C(N)=O)C2=O)CC1` (stereo partly shown) [FU002], the “MIC of E. faecium UL602570*” value in data set [1] (comparison of conjugate, equimolar non-covalent mixture and vancomycin) is 1 µg/mL. For the same compound, the MIC in data set [2] (A. baumannii SC300007, median of at least triplicates on two different plates) is no less than 640 µg/mL; in data set [3] (K. pneumoniae ATCC 700603, median of at least triplicates on two different plates), no less than 640 µg/mL. The “MIC after 8 passages” value in data set [4] (MRSA USA300 LAC, 8 passages in increasing compound concentrations, 24 h at 37 °C each) came out at 4 µg/mL (≈ 1.47 µM). The “initial MIC” value in data set [4] (MRSA USA300 LAC, before passaging, Muller Hinton broth, 24 h, 37 °C) is 1 µg/mL. Also, the resistance development entry in data set [4] (after eight passages in increasing concentrations) was “no resistance development was observed”. Besides, the hemolytic activity result in data set [5] is “no relevant hemolytic activity”.
Take `CN[C@H](CC(C)C)C(=O)N[C@H]1C(=O)N[C@@H](CC(N)=O)C(=O)N[C@H]2C(=O)N[C@H]3C(=O)N[C@H](C(=O)N[C@H](C(=O)O)c4cc(O)cc(O)c4-c4cc3ccc4O)[C@H](O)c3ccc(c(Cl)c3)Oc3cc2cc(c3O[C@@H]2O[C@H](CO)[C@@H](O)[C@H](O)[C@H]2O[C@H]2C[C@](C)(N)[C@H](O)[C@H](C)O2)Oc2ccc(cc2Cl)[C@H]1O` [vancomycin]: the MIC was greater than 64 µg/mL in data set [1] (Enterococcus faecium, read-out: MIC of E. faecium UL602570*); no less than 640 µg/mL in data set [2] (Acinetobacter baumannii, SC300007); no less than 640 µg/mL in data set [3] (Klebsiella pneumoniae, ATCC700603); 4 µg/mL (≈ 2.76 µM) in data set [4] (read-out: MIC after 8 passages); 0.5 µg/mL (≈ 0.345 µM) in data set [4] (read-out: initial MIC). Moreover, the hemolytic activity result in data set [5] is given as “no relevant hemolytic activity”.
